Measurements taken from patent publication US10632106B2, “Methods of cancer treatment with 2-(1′H-Indole-3′-carbonyl)-thiazole-4-carboxylic acid methyl ester” (Ariagen, Inc., priority 2009, dated 2020).
Marks after values point to notes of the source that are not given here.

Key:
Format in all cases: in vivo
[1] = ITE toxicity monitoring, 7-day i.p. dosing of ITE nano-suspension in C57BL/6 mice; conditions: for #LYMPH / #NEUT / ALT / AST / BUN / NEUT / PLT / TP / WBC: group mean
Protocol: ITE nano-suspension was prepared by milling ITE powder in water containing 1% CMC-Na (sodium carboxymethyl cellulose), 0.5% SLS (sodium lauryl sulfate), 0.085% PVP K90 (polyvinylpyrrolidone K90), and 0.2% Benzoate with a Media Wet Milling Machine (Dispermat SL-nano, WAB Willy A. Bachofen A G, Muttenz, Switzerland) until reached a desired size range. The particle size was determined by a Laser Diffraction Particle Size Analyzer (MS2000, Malvern Instruments, Worcestershire, UK). The parameters of particle sizes were determined as D10 (diameter of 10% of particles)=67 nm, D50=114 nm, and D90=207 nm. The nano-suspension thus prepared was stored at 4° C. until use.
Female C57BL/6 mice, 6 to 8 week old, were randomly assigned to 4 dose groups (0, 20, 100, and 500 mg/kg b.w.) each with 6 animals. ITE nano-suspension was administered by i.p. injection once daily for 7 consecutive days. Mortality, clinical signs, body weight, and food consumption were recorded. Data on hematology (3 of 6 mice) and serum chemistry (the other 3 of 6 mice) were collected. TK (Toxicokinetic) parameters were determined as described in Example 1 and plasma levels of ITE at both 1 and 3 hr. post dosing on day 1, 3, and 7 were measured. A gross observation of major organs at necropsy was conducted.

[2] = system: T24 (Human bladder cancer) xenografts; assay: T24 xenograft growth inhibition; conditions: ITE 100-200 mg/kg i.p. once daily
Protocol: (§1) All the procedures related to animal handling, care, and the treatment in the study were performed following guidelines of KeyGen Biotechn Co., Ltd. (Nanjing, China), a contract research organization we hired, based on the guidance of the Association for Assessment and Accreditation of Laboratory Animal Care (AAALAC). Animals were checked for any effects of tumor growth and drug treatment on normal behavior such as mobility, food and water consumption, body weight gain/loss (bodyweights were measured every two days), eye/hair matting, and any other abnormal effect. Death and observed clinical signs were recorded. Individual animals with a tumor volume exceeding 3,000 mm^3 or animals of a group with a mean tumor volume exceeding 2,000 mm^3 were euthanized. In addition, animals showing signs of severe distress and/or pain or losing the capability of accessing adequate food or water were humanely sacrificed.
(§2) Cell lines HCT116, Siha, MFC were cultured in DMEM medium (high glucose) supplemented with 10% fetal bovine serum (FBS), SW116 and T24 in RPMI-1640 medium with 10% FBS, M14 and A375 in DMEM medium (high glucose) with 10% calf serum (CS), SGC7901 and Ketr-3 in RPMI-1640 medium with 10% CS, and CFPAC-1 in IMDM medium with 10% FBS. All of the cells were cultured, in the presence of 100 U/ml penicillin and 100 μg/ml streptomycin, at 37° C. in an atmosphere of 5% CO2 in air. […] The cells growing in an exponential phase were harvested and counted for tumor inoculation. Cell lines 5180 and U14 were maintained in ascites (peritoneal cavity fluid) of mice and were harvested and counted for tumor inoculation. […]
(§3) Tumor volume was measured every two days in two dimensions using a caliper and the volume was calculated with a formula of: V=0.5 a×b^2, where a and b are the long and short diameter (in mm) of a tumor, respectively. […] The TGD was calculated as: TGD=T−C, where T was the time (in days) required for tumors in a drug treated group to reach a predetermined mean tumor volume and C the time (in days) in the control group to reach the same volume. […]

[3] = system: CFPAC-1 (human pancreatic cancer) xenografts; assay: CFPAC-1 xenograft growth inhibition; conditions: ITE 100-200 mg/kg i.p. once daily
Protocol: as §1, §2, §3

[4] = 20 mg/kg ITE nano-suspension i.p. once daily 7 days
[5] = 100 mg/kg ITE nano-suspension i.p. once daily 7 days
[6] = 500 mg/kg ITE nano-suspension i.p. once daily 7 days
[7] = ITE nano-suspension 20, 100, 500 mg/kg b.w. i.p. once daily for 7 days
[8] = TGI at day 26, TGI=(1−ΔT/ΔC)×100%
[9] = end of therapy relative to beginning

COC(=O)c1csc(C(=O)c2c[nH]c3ccccc23)n1 [ITE, 2-(1′H-indole-3′-carbonyl)-thiazole-4-carboxylic acid methyl ester]
BUN raised over vehicle ([1]; 20 mg/kg (low dose) group): 1.4 folds | #LYMPH [1, 4]: 3.35 ×10^9 cells | #NEUT [1, 4]: 1.08 ×10^9 cells | ALT [1, 4]: 43.2 U/L | AST [1, 4]: 118.1 U/L | BUN [1, 4]: 10.5* mmol/L | NEUT [1, 4]: 23.3% | PLT [1, 4]: 435 ×10^9 cells | TP [1, 4]: 39.5 g/L | WBC [1, 4]: 4.68 ×10^9 cells | WBC raised ([1]; 100 mg/kg (mid) group): 2.6 folds | #LYMPH [1, 5]: 3.5 ×10^9 cells | #NEUT [1, 5]: 3.62 ×10^9 cells | ALT [1, 5]: 33.2 U/L | AST [1, 5]: 131.6 U/L | BUN [1, 5]: 7.3 mmol/L | NEUT [1, 5]: 46.6% | PLT [1, 5]: 668 ×10^9 cells | TP [1, 5]: 40.8 g/L | WBC [1, 5]: 10.77* ×10^9 cells | ALT raised over vehicle control ([1]; 500 mg/kg (high dose) group): 3.2 folds | TP (total protein) raised over vehicle control ([1]; 500 mg/kg (high dose) group): 1.2 folds | AST raised over vehicle control ([1]; 500 mg/kg (high dose) group, not significant): 1.8 folds | WBC raised ([1]; 500 mg/kg (high) group, not significant): 2.0 folds | #LYMPH [1, 6]: 4.81 ×10^9 cells | #NEUT [1, 6]: 3.4 ×10^9 cells | ALT [1, 6]: 74.5* U/L | AST [1, 6]: 151.2 U/L | BUN [1, 6]: 9.1 mmol/L | NEUT [1, 6]: 40.5% | PLT [1, 6]: 1075 ×10^9 cells | TP [1, 6]: 49.5* g/L | WBC [1, 6]: 8.38 ×10^9 cells | body weight loss [1, 7]: no significant body weight loss | mortality [1, 7]: no mortality observed except that one mouse in 20 mg/kg b.w. (low dose) group died | food consumption ([1]; all 3 ITE treated groups, day 1 of the study): dramatic decrease in food consumption | major organ inspection at necropsy ([1]; all the ITE treated groups): No abnormality was observed | TGD ([2]; TGD at Vol. 1,000): 9 days | TGI (%) [2, 8]: 66% | Weight Loss [2, 9]: 13% | TGD ([3]; TGD at Vol. 1,000): 8 days | TGI (%) [3, 8]: 58% | Weight Loss [3, 9]: 14%
